Assay results from PubChem BioAssay AID1996.
Converted amounts (≈) assume the structure as drawn.

conditions: buffer; pH 7.4; 200.0 µM

Compound | solubility kinetic [µg/mL]
CC(C)C(=O)Nc1cc(C(F)(F)F)ccc1-n1ccnc1 | 38.8 (≈ 131 µM)
NC1=NC(=O)C(Cc2ccccc2)S1 (centres undefined) | > 30.9
COc1ccc(OC)c(-c2cc(-c3cccnc3)nc(N)c2C#N)c1 | 1.7 (≈ 5.11 µM)
CC(C)[C@H](NS(=O)(=O)c1ccccc1F)C(=O)NC1CCCCC1 | > 53.5
Cc1cc(NC(=O)CSc2ccc(F)cc2)no1 | > 39.9
CN(CC(=O)Nc1ccc(Cl)c(C(F)(F)F)c1)C(=O)COC(=O)C1CC2CCCC(C1)C2=O (centres undefined) | 59.2 (≈ 121 µM)
N#C/C(=N\O)c1nc2ccccc2s1 | > 30.5
O=C(COC(=O)c1ccco1)NCc1ccccc1Cl | > 44.1
O=C(OCC(=O)N1CCc2ccccc2C1)c1ccc(O)cc1 | 4.5 (≈ 14.5 µM)
COc1cccc(CNCc2ccccc2OC)c1.O=C(O)C(=O)O | 28.9
Cc1cc(C)nc(N2CCCC(C(=O)Nc3ccc(F)cc3)C2)n1 (centres undefined) | 1.2 (≈ 3.65 µM)
CC1CCc2c(C(=O)Nc3ccccn3)csc2C1 (centres undefined) | 11.6 (≈ 42.6 µM)
Cc1oc(-c2ccoc2)nc1CN(CC1CCC(=O)N1)C(C)C (centres undefined) | 38.8 (≈ 122 µM)
COc1cc2sc(C)nc2c2ccccc12 | 2.9 (≈ 12.6 µM)
Cc1ccc(C(=O)NCC(=O)OC2CCCCC2=O)cc1C (centres undefined) | > 45.5
CCOc1ccccc1NC(=O)C(C)SCc1ccccc1 (centres undefined) | 1.4 (≈ 4.44 µM)
N#CCOC(=O)/C=C/c1ccc2c(c1)OCO2 | 4.6 (≈ 19.9 µM)
CCOc1ccccc1CN1CCN(C2CCC2)CC1CCO (centres undefined) | 39.9 (≈ 125 µM)
Cc1ccc(S(=O)(=O)NC(=O)Nc2ccc(C)cc2C)cc1 | 35.1 (≈ 110 µM)
O=C(O)c1ccccc1-c1ccccc1C(=O)NCc1ccccc1F | 38.4 (≈ 110 µM)

Compound | solubility kinetic [µg/mL]
CCOc1ncccc1C(=O)NCCc1ccc(Cl)cc1 | 33.7 (≈ 111 µM)
Nc1nc2c(ccc3ccccc32)s1 | 27.4 (≈ 137 µM)
O=C(Nc1ccc(Br)cc1)c1ccc2c(c1)OCO2 | 1.3 (≈ 4.06 µM)
Cc1onc(-c2ccccc2)c1NC(=O)N(CCC#N)Cc1ccccc1 | 45.4 (≈ 126 µM)
O=C(OCC(=O)N1CCOCC1)c1cc(=O)[nH]c2ccccc12 | > 47.4
CCOc1ccccc1NC(=O)NCc1ccccn1 | > 40.7
COc1ccccc1NC(=O)NCC1CC1(Cl)Cl (centres undefined) | 42.1 (≈ 146 µM)
COc1ccc(-c2cc(C(=O)NCc3ccco3)c3ccccc3n2)c(OC)c1 | 8.3 (≈ 21.4 µM)
O=C(NCc1ccccc1)c1ccc(=O)oc1 | > 34.4
OCCN1c2ccccc2CCc2ccccc21 | 21.5 (≈ 89.8 µM)
Cc1cc(NC(=O)COC(=O)c2c(C)c(C)c(C)c(C)c2C)no1 | 2.3 (≈ 6.96 µM)
O=C(O)CCCC(=O)N1CCOCCOCCOCCOCC1 | 48.2 (≈ 145 µM)
Cc1cc(C)c(C(=O)COC(=O)CN2C(=O)NC3(CCCC3)C2=O)cc1C | > 55.9
COc1ccc(CN2CCCCCC2)cc1OC | 21.6 (≈ 86.6 µM)
NC(=O)Cn1cc(C=C2C(=O)NC(=O)NC2=O)c2ccccc21 | 11.3 (≈ 36.2 µM)
O=C(/C=C/Nc1ccc(F)c(Cl)c1)c1ccccc1 | 0.7 (≈ 2.54 µM)
COc1ccc2nc(COC(=O)c3cccs3)c(C(C)=O)[n+]([O-])c2c1 | 1.6 (≈ 4.46 µM)
CCN1CC(CN(C)Cc2nc(Cc3ccccc3)no2)CC1=O (centres undefined) | > 49.3
CC1CCc2c(sc(/N=C/c3cccnc3)c2C(N)=O)C1 (centres undefined) | 26.8 (≈ 89.5 µM)
Cc1ccc(S(=O)(=O)N2CCn3cccc3C2C)cc1 (centres undefined) | > 43.6

Compound | solubility kinetic [µg/mL]
CC(C)N(Cc1ccccc1)C(=O)COC(=O)c1cc[n+]([O-])cc1 | > 49.3
C=Cc1ccc(N=Cc2c(O)ccc3ccccc23)cc1 | 0.9 (≈ 3.29 µM)
CCOC(=O)N1CCN(c2nc3c(C)cccn3c(=O)c2C=O)CC1 | > 51.7
N#Cc1ccc(OCCN2CCc3ccccc3C2)cc1 | 41 (≈ 147 µM)
Cc1ccc(CSCC(=O)Nc2ccccc2)cc1 | 33.4 (≈ 123 µM)
COc1ccc(Cn2c(C)nc3ccc([N+](=O)[O-])cc3c2=O)cc1 | 3.8 (≈ 11.7 µM)
CCCCn1c(=O)c(CCC(=O)O)nc2ccccc21 | 31.8 (≈ 116 µM)
C=CCSc1nc(N2CCOCC2)c2c(c1C#N)CC(C)(C)N(C)C2 | 49.9 (≈ 139 µM)
CC1CN(C(=O)c2cccs2)CC(C)O1 (centres undefined) | 32.4 (≈ 144 µM)
CCCCN(C)CCNC(=O)C(=O)c1c(C)[nH]c2ccccc12 | > 47.3
CC(=O)c1cccc(NC(=O)NC2CCCCCCC2)c1 | 2.5 (≈ 8.67 µM)
COC(=O)c1c(C)[nH]c(C)c1-c1ccc([N+](=O)[O-])cc1 | 36.3 (≈ 132 µM)
CCc1[nH]c(C(=O)O)c(C)c1C(=O)OC | > 31.7
O=C1NC(=O)N(c2ccc(F)cc2)C(=O)/C1=C/c1ccsc1 | > 47.4
COc1ccc(-c2nc(N)ncc2-c2ccc(Cl)cc2)c(O)c1 | < 0.2
COc1ccccc1N1CCN(Cc2cc3c(cc2O)OCO3)CC1 | > 51.4
CN(CC(=O)Nc1ccccc1Br)C(=O)CN1CCN(Cc2cccc(Cl)c2)CC1 | > 74.1
O=C(COC(=O)c1ccc(F)cc1)NC1CC1 | > 35.6
CC[N+](CC)(CC#CCO)CC#Cc1ccccc1.[Br-] | 44.2
